From patent publication US9610359B2, “Methods and compositions related to annexin 1-binding compounds” (Burnham Institute for Medical Research, priority 2009, dated 2017)
“Also recorded” adds a separate entry of the source. Residues, ends and D or L forms follow the SMILES beside them. No end group written: not given here.

Key:
[1] = test system: Mouse melanoma B16F1 tumors; type: in vivo; conditions: B16 melanoma, 0.13 μmoles iv
Protocol: (a) Mouse melanoma B16F1 tumors were grown subcutaneously in C57BL6 mice. On day 10, each mouse was injected intravenously with either 100 μl of 5% glucose or that containing 0.13 μmoles of each IF7, GA, or IF7-GA. Injections were administered every other day, for a total of three injections, until day 14. […] B, Histochemistry of tumors from the mice intravenously injected with the compounds described in A. Apoptotic tumor cells along blood vessels in transplanted tumors are detected by TUNEL assay. B16 melanoma (a), LLC lung carcinoma (b), PC3 prostate tumor (c) and MDA-MB-231 breast tumor (d) from mice treated with each compound.
Injections were administered every other day, for a total of 7 injections, until day 26, as shown by arrows.

[2] = test system: Mouse Lewis lung carcinoma (LLC) tumors; assay: subcutaneous Lewis lung carcinoma tumor model; type: in vivo; conditions: 0.13 μmoles iv
Protocol: (§1) FIGS. 6A and 6B show the effect of IF7-GA on melanoma, lung carcinoma, prostate cancer, and breast cancer mouse models. A, Effect of IF7-GA on tumor size. […] Mice were euthanised on day 15 to measure tumor weight. […] Mice were euthanised on day 13 and tumors weighed. (c) Human prostate cancer PC3 tumors were grown orthotopically in the prostate of SCID mice. On day 7, each mouse was injected intravenously with the compounds as in A-a, and injections administered every 4 days, for a total of four injections, until day 22. Mice were euthanised on day 28 and tumors weighed. (d) Human breast cancer MDA-MB-231 tumors were grown orthotopically in fat pads of SCID mice. On day 7, each mouse was injected intravenously with the compounds as in A-a, and injections performed every 4 days, for a total of four injections, until day 22. […] B, Histochemistry of tumors from the mice intravenously injected with the compounds described in A. Apoptotic tumor cells along blood vessels in transplanted tumors are detected by TUNEL assay. […]
(§2) Mouse melanoma B16F1 cells (2×10^5 cells/100 μl serum-free DMEM) were injected subcutaneously into the dorsal flank of C57BL/6 female mice (8-10 weeks old). […] On day 15, mice were sacrificed and tumor weights determined. […] On day 13, mice were sacrificed and tumor weights determined. […] On day 28, mice were sacrificed and prostate tumor weights determined. […]

[3] = test system: Human prostate cancer PC3 tumors; assay: orthotopic PC3 prostate cancer model in SCID mice; type: in vivo; conditions: 0.13 μmoles iv
Protocol: as §1, §2

[4] = test system: Human breast cancer MDA-MB-231 tumors; assay: orthotopic MDA-MB-231 breast cancer model in SCID mice; type: in vivo; conditions: MDA-MB-231 breast tumor, 0.13 μmoles iv
Protocol: as §1, §2

[5] = molecular target: T1, Anxa1-His protein (Homo sapiens, UniProt P04083); assay: isothermal titration calorimetry (ITC) with Anxa1-His protein; type: binding; conditions: 23° C., 20 mM Tris pH 7.9, 250 mM NaCl, 1 mM CaCl2, 10% dimethylsulfoxide; average n=4, two Anxa1-His preparations
T1 construct: Full-length cDNA encoding Anxa1 was obtained from Invitrogen (Carlsbad, Calif.) and subcloned into pET29a vector; His6 (C); made in house; host or cells: bacteria (pET29a vector, Novagen)
T1 sequence (P04083 1-346): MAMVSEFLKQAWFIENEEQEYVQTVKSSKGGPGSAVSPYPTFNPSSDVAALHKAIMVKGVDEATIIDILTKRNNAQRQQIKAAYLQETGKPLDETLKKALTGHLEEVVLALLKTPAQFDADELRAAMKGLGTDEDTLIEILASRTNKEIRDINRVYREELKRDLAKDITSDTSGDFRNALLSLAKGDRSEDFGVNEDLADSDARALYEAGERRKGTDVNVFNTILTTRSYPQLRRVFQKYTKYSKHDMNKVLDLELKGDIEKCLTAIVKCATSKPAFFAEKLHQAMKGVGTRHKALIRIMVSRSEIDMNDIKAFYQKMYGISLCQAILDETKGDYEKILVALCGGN
Protocol: ITC was performed on a VP-ITC calorimeter from Microcal (Northampton, Mass.). In this analysis IF7K3C peptide or […] (SEQ ID NO:12), in which IF7 was modified by inserted with three lysine residues between IF7 and C to increase solubility in water. Eight μl aliquots of solution containing 1.0 or 1.5 mM were injected into the cell containing 100 or 150 μM Anxa1-His protein. In each experiment 37 injections were made. The experiments were performed at 23° C. in buffer containing 20 mM Tris pH 7.9, 250 mM NaCl, 1 mM CaCl2 and 10% dimethylsulfoxide. Experimental data were analyzed using Microcal Origin software provided by the ITC manufacturer (Microcal, Northampton, Mass.).

[6] = molecular target: T2, Anxa1-His6 protein (Homo sapiens, UniProt P04083); assay: in vitro plate assay for binding to recombinant Anxa1-His6 protein; conditions: 4 μg/ml, Tris-HCl pH7.4, 1 mM CaCl2, 0.05% Tween 20
T2 construct: Full-length cDNA encoding Anxa1 was obtained from Invitrogen (Carlsbad, Calif.) and subcloned into pET29a vector; His6 (C); made in house; host or cells: bacteria (pET29a vector, Novagen)
T2 sequence (P04083 1-346): T1 sequence (P04083 1-346)
Source text: (§3) FIGS. 1A-1H show the essential role of annexin 1 (Anxa1) in tumor growth and identification of a peptide sequence with tumor vasculature targeting activity in vivo. A and B. Growth of B16 tumors subcutaneously injected into Anxa1(+/−) and Anxa1(−/−) mutant mice. C. Histology of B16 tumors produced in Anxa1(+/−) and Anxa1(−/−) mice. Each scale bar represents 2.00 mm. D. Immunohistochemistry of B16 tumors for CD31 showing endothelial cells and vasculature. Each scale bar represents 200 μm. E. In vivo phage targeting in B16 tumor-bearing mice. Numbers of transformed colonies recovered from the tumor or lung were determined. […] F. In vivo tumor and organ targeting activity of IFLLWQR (SEQ ID NO:2) displaying phage. Phage was injected into B16 tumor bearing mice pre-injected with anti-Anxa1 antibody or with control rabbit IgG. G. In vitro plate assay for binding of IF7-A488 (upper line) and control RQ7-A488C (lower line) to recombinant […] protein produced by bacteria. H. Effect of IF7 (upper line) and control RQ7 (lower line) on binding of FITC-labeled polyacrylamide-LeA oligosaccharide to Anxa1-His6 protein.
(§4) Full-length cDNA encoding Anxa1 was obtained from Invitrogen (Carlsbad, Calif.) and subcloned into pET29a vector (Novagen) to produce an […] fusion protein. […] After washing the plate, fluorescence was measured by a Molecular Devices Analyst HT plate reader. […]

[7] = test system: Lewis lung carcinoma (LLC) tumors; assay: in vivo imaging of tumor targeting in dorsal skinfold chamber; set-up: species or system mouse; conditions: for vascular staining in tumor tissue sections: 20 min after injection
Protocol: (A) Lewis lung carcinoma (LLC) tumors were allowed to vascularize for 3 days in dorsal skinfold chamber window in nude mice. Mice were injected with 100 μl of 50 μM IF7-A488 (row a) or RQ7-A488 (row b) in 5% glucose in water. IF7-A488 was also injected to tumor-bearing mice pre-injected with rabbit IgG (row c) or with rabbit anti-Anxa1 antibody (row d). Fluorescence signals were monitored under a fluorescence microscope up to 40 min post-injection. From left: bright field before injection, and fluorescence at 0, 5, 20 min after injection. Far right, the boundary of tumor and stroma at 20 min (Scale bar=500 μm). (B) Quantitative analysis of fluorescence during the course of the analysis shown in A. The line with the highest signal at 10 minutes represents IF&-A488. The line with the second highest signal at 10 minutes represents the control IgG. The line with the third highest signal at 10 minutes represents Anxa-1 antibody. The line with the lowest signal at 10 minutes represents RQ7-A488. Intensity of fluorescence was determined by Image J program. Error bars represent SD (n=3). Asterisks show statistical significance or p<0.0001, t test. (C) Fluorescence micrographs of tumor sections 20 min after injection with IF7-A488 and RQ7-A488. From left: IF7-A488, DAPI, merged, and bright field. […] Experiments were repeated 3 times, and representative results are shown. Arrows indicate fluorescence. (D) Fluorescence remained in circulation in mice with or without subcutaneous B16 tumors. IF7-A488 was injected intravenously through the tail vein, and fluorescence remaining in circulation was measured. Upper line represents “without tumor”, middle line represents “with 3 days tumor”, and bottom line represents “with 6 days tumor.” Error bars represent SD (n=3).
A Lewis lung carcinoma (LLC) tumor was produced in a donor nude mouse by subcutaneous injection, and small piece of tumor (less than 1 mm^3) was transplanted to a dorsal skinfold chamber in a recipient nude mouse (8-10 weeks female Balb/c nude) as described (Lehr et al., Am J Pathol 1993; 143:1055-62; Oh et al., Nat Biotechnol 2007; 25:327-37). Three days later, the mouse was anesthetized by peritoneal injection of 1.25% 2,2,2-Tribromoethanol ([…]). IF7-A488 or RQ7-A488 (100 μl; […] in 5% glucose solution) was injected through the tail vein. Intravital Alexa 488 signals in the tumor were detected and recorded by a Zeiss Axioplan fluorescence microscope and a digital camera system (DP70 and DP controller, Olympus). For inhibition assays, rabbit anti-Anxa1 antibody (H-65, Santa Cruz) or rabbit IgG (20 μg IgG) was injected 15 minutes prior to IF7-A488 injection. Signal intensity in the tumor from 0 min to 40 min was measured by Image J (NIH, Maryland). After 10 min, irradiation of specimens by a UV lamp was limited only to times when photos were taken to avoid fluorescence bleaching. The tumor was isolated from the dorsal skin folder chamber, fixed with 4% paraformaldehyde at room temperature for 15 min, immersed in O.C.T compound, and cryosections were made. Frozen sections were overlaid with Vectashield containing DAPI (Vector laboratories) and examined under a Zeiss Axioplan fluorescence microscope.

[8] = fluorescence remaining in circulation after intravenous injection; type: in vivo, mouse
Protocol: (A) Lewis lung carcinoma (LLC) tumors were allowed to vascularize for 3 days in dorsal skinfold chamber window in nude mice. Mice were injected with 100 μl of 50 μM IF7-A488 (row a) or RQ7-A488 (row b) in 5% glucose in water. IF7-A488 was also injected to tumor-bearing mice pre-injected with rabbit IgG (row c) or with rabbit anti-Anxa1 antibody (row d). Fluorescence signals were monitored under a fluorescence microscope up to 40 min post-injection. From left: bright field before injection, and fluorescence at 0, 5, 20 min after injection. Far right, the boundary of tumor and stroma at 20 min (Scale bar=500 μm). (B) Quantitative analysis of fluorescence during the course of the analysis shown in A. The line with the highest signal at 10 minutes represents IF&-A488. The line with the second highest signal at 10 minutes represents the control IgG. The line with the third highest signal at 10 minutes represents Anxa-1 antibody. The line with the lowest signal at 10 minutes represents RQ7-A488. Intensity of fluorescence was determined by Image J program. […] (C) Fluorescence micrographs of tumor sections 20 min after injection with IF7-A488 and RQ7-A488. […] Arrows indicate fluorescence. (D) Fluorescence remained in circulation in mice with or without subcutaneous B16 tumors. IF7-A488 was injected intravenously through the tail vein, and fluorescence remaining in circulation was measured. […]

[9] = body weights, blood cell counts and blood chemistry of treated nude mice; type: in vivo, mouse; conditions: daily injection for 10 days, versus no drug injection
Source text: FIGS. 15A, 15B and 15C show body weights (A), blood cell counts (B), and blood chemistry (C) of the nude mice treated with IF7C(RR)-SN38 and RQ7C(RR)-SN38 daily injection for 10 days.

[10] = molecular target: T2, Anxa1-His6 protein; assay: inhibition of binding of FITC-labeled polyacrylamide-LeA oligosaccharide to Anxa1-His6
Source text: as §3, §4

[11] = 100 μl of 50 μM, tail vein, nude mice

## CO[C@H]1/C=C\C=C(/C)C(=O)NC2=CC(=O)C(NCCCNC(=O)CCCN3C(=O)C=CC3=O)=C(C[C@@H](C)C[C@H](OC)[C@H](O)[C@@H](C)/C=C(\C)[C@@H]1OC(N)=O)C2=O [GA, 17-GMB-APA-GA, reference compound]
[1]
  apoptosis of perivascular tumor cells (TUNEL, histochemistry): rarely show apoptosis
[2]
  apoptosis of perivascular tumor cells (TUNEL): rarely show apoptosis
[3]
  apoptosis of perivascular tumor cells (TUNEL): rarely show apoptosis
[4]
  apoptosis of perivascular tumor cells (TUNEL): rarely show apoptosis

## CC[C@H](C)[C@H](N)C(=O)N[C@@H](Cc1ccccc1)C(=O)N[C@@H](CC(C)C)C(=O)N[C@@H](CC(C)C)C(=O)N[C@@H](Cc1c[nH]c2ccccc12)C(=O)N[C@@H](CCC(N)=O)C(=O)N[C@@H](CCCNC(=N)N)C(=O)N[C@@H](CCCCN)C(=O)N[C@@H](CCCCN)C(=O)N[C@@H](CCCCN)C(=O)N[C@@H](CS)C(=O)O [IF7K3C] (H-IFLLWQRKKKC-OH; N-terminus and C-terminus assumed)
[5]
  Kd: 11 ± 6 µM

## IF7-A488 (IFLLWQRC)
[6]
  binding to recombinant Anxa1-His6 protein in plate assay: binds to recombinant Anxa1-His6 protein
[7]; [11]
  time until fluorescence signals appeared in the tumor: within one minute
  time until tumor fluorescence reached a plateau: 9 min
[7]
  vascular staining in tumor tissue sections: vascular staining by IF7-A488; also recorded: detected on endothelial cells of tumor vasculature
[7]; IgG 15 minutes prior
  tumor targeting after prior injection of irrelevant rabbit IgG: did not inhibit IF7-A488 tumor targeting
[7]; antibody 15 minutes prior
  tumor fluorescence signals after prior injection of anti-Anxa1 antibody: significantly reduced
[7]; or until the experiment was terminated
  time tumor fluorescence remained high: 40 min
[8]; control mice without tumors
  fluorescence remaining in circulation, mice without tumors: remained in circulation after an initial surge
[8]; subcutaneous B16 tumors
  fluorescence remaining in circulation, B16-tumor-bearing mice: complete disappearance from the circulation

## RQ7-A488 (RQWLLFI; also: Alexa 488 conjugate, site not given here) [reference compound]
[6]
  binding to recombinant Anxa1-His6 protein in plate assay: did not bind to Anxa1
[7]; [11]
  tumor fluorescence signals: either not detectable or remained at background levels
[7]
  vascular staining in tumor tissue sections: not RQ7-A488; also recorded: no RQ7-A488 signal was detected

## RQ7C(RR)-SN38 (RQWLLFICRR; also: SN-38 conjugate, site not given here)
[9]
  blood cell counts: None of the parameters showed significant differences to the control
  blood chemistry: None of the parameters showed significant differences to the control
  body weights: None of the parameters showed significant differences to the control

## RQWLLFI (control peptide) [RQ7, reference compound]
[10]
  inhibition of fucosylated carbohydrate (LeA) binding to Anxa1: not by RQ7
